From patent US5061713A, “Analgesic oxazolopyridine compounds” (Science et Organization, priority 1989, dated 1991)

Assays:
[1] = system: writhing movements; assay: analgesic activity, phenyl-p-benzoquinone writhing movements (technique derived from Siegmund); format: in vivo; conditions: Mus musculus; mice, oral, 1 hour before i.p. phenyl-p-benzoquinone; counted 5th to 10th minute; read-out: ED50, the dose producing a 50% activity (% decrease in the number of writhing movements)
Method: The activity against pain was investigated in mice (23-25 g) according to a protocol derived from the technique described by SIEGMUND (SIEGMUND E.A., R. A. CADMUS & GOLU, J. Pharm. Exp. Ther. 119, 184, 1957). The mice, randomized in batches of 12 animals, received the treatment orally (excipient for the controls) 1 hour before the intraperitoneal injection of a 0.02% aqueous-alcoholic solution of phenyl-p-benzoquinone (Sigma). The writhing movements are counted between the 5th and 10th minute after injection.
The percentage activity obtained was evaluated for each dose (% decrease in the number of writhing movements in the treated animals relative to the controls). An ED50, the dose producing a 50% activity, was determined for each product.

[2] = system: edema; assay: anti-inflammatory activity, acute inflammation induced by carrageenan in the rat hind foot (method of Winter); format: in vivo; conditions: rats, 1 hour before carrageenan, edema determined 3 hours after injection, read-out: ED30, the dose producing a 30% activity (percentage decrease in the mean edema)
Method: The anti-inflammatory potential of the compounds was investigated on a model of acute inflammation induced by the subcutaneous injection of a solution of carrageenan into the rat hind foot, according to a technique based on the method of WINTER, C.A., E. A. RISLEY and G. N. NUSS (Proc. Soc. Exp. Med. 111, 554, 1962). The rats (100-120 g), randomized in batches of 8, were treated (including the controls, which receive excipient) 1 hour before the local injection of a 0.5% suspension of carrageenan (Sigma type IV; 0.1 ml per rat). The edema is determined 3 hours after injection, by plethysmometric measurement (UGO BASILE water plethysomometer) of the volume of each of the hind feet (edema=volume of the inflamed foot-volume of the non-inflamed foot).
The percentage activity corresponds to the percentage decrease in the mean edema of the batch compared with the mean of the corresponding control batch. An ED30, the dose producing a 30% activity, was determined.

Compound | ED50 [1] | ED30 [2]
CCCC(=O)c1ccnc2nc(-c3ccccc3)oc12 [Example 2, 2-PHENYL-7-BUTYRYLOXAZOLO[4,5-b]PYRIDINE] | ~5 mg/kg | 
Fc1ccccc1-c1nc2ncccc2o1 [Example 6 of U.S. Pat. No. 4,038,396, 2-(2-fluorophenyl)oxazolo[4,5-b]pyridine] | ~12 mg/kg | 50 mg/kg
CCCC(=O)c1ccnc2nc(-c3ccccc3F)oc12 [Example 6, 2-(2-FLUOROPHENYL)-7-BUTYRYLOXAZOLO[4,5-b]PYRIDINE] | ~8 mg/kg | 
